{
  "source": "patent US8192962B2",
  "about": "“Processes for detecting toxic substances” (Daikin Industries, Ltd., priority 2001, dated 2012)",
  "tested_on": "Energy system protein genes",
  "assay": "DNA chip mRNA expression in yeast, energy system protein genes (Table 4)",
  "type": "cell-based, Saccharomyces cerevisiae S288C",
  "method_in_brief": "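Cells were grown at 25° C. in YPD, treated at logarithmic phase for 2 h with a chemical at a concentration inhibiting growth but not causing death, and compared with untreated cultures. Labeled cDNA was hybridized to a DNA chip carrying all yeast genes, and the expression ratio was taken from scanner fluorescence.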",
  "data": [
    {"substance": "Na2As [(1)]", "values": [
      {"measurement": "The level of expressed mRNA in the presence of chemical substance/The level of expressed mRNA in the absence of chemical substance", "setting": "yeast gene YJR048W", "value": 1.3},
      {"measurement": "The level of expressed mRNA in the presence of chemical substance/The level of expressed mRNA in the absence of chemical substance", "setting": "yeast gene YJR121W, cells incubated two hours with the chemical substance", "value": 1.2},
      {"measurement": "The level of expressed mRNA in the presence of chemical substance/The level of expressed mRNA in the absence of chemical substance", "setting": "yeast gene YJR155W", "value": 7.6},
      {"measurement": "The level of expressed mRNA in the presence of chemical substance/The level of expressed mRNA in the absence of chemical substance", "setting": "yeast gene YKL016C, cells incubated two hours with the chemical substance", "value": 1.5},
      {"measurement": "The level of expressed mRNA in the presence of chemical substance/The level of expressed mRNA in the absence of chemical substance", "setting": "yeast gene YKL060C, cells incubated two hours with the chemical substance", "value": 1.7},
      {"measurement": "The level of expressed mRNA in the presence of chemical substance/The level of expressed mRNA in the absence of chemical substance", "setting": "yeast gene YKL141W, cells incubated two hours with the chemical substance", "value": 1.6},
      {"measurement": "The level of expressed mRNA in the presence of chemical substance/The level of expressed mRNA in the absence of chemical substance", "setting": "yeast gene YKL148C, cells incubated two hours with the chemical substance", "value": 0.9},
      {"measurement": "The level of expressed mRNA in the presence of chemical substance/The level of expressed mRNA in the absence of chemical substance", "setting": "yeast gene YKR009C, cells incubated two hours with the chemical substance", "value": 1.0},
      {"measurement": "The level of expressed mRNA in the presence of chemical substance/The level of expressed mRNA in the absence of chemical substance", "setting": "yeast gene YKR058W, cells incubated two hours with the chemical substance, 25° C., YPD medium", "value": 1.3},
      {"measurement": "The level of expressed mRNA in the presence of chemical substance/The level of expressed mRNA in the absence of chemical substance", "setting": "yeast gene YKR097W", "value": 1.6},
      {"measurement": "The level of expressed mRNA in the presence of chemical substance/The level of expressed mRNA in the absence of chemical substance", "setting": "yeast gene YLL041C, cells incubated two hours with the chemical substance", "value": 1.5},
      {"measurement": "The level of expressed mRNA in the presence of chemical substance/The level of expressed mRNA in the absence of chemical substance", "setting": "yeast gene YLR038C, cells incubated two hours with the chemical substance", "value": 2.6},
      {"measurement": "The level of expressed mRNA in the presence of chemical substance/The level of expressed mRNA in the absence of chemical substance", "setting": "yeast gene YLR044C, cells incubated two hours with the chemical substance", "value": 0.8},
      {"measurement": "The level of expressed mRNA in the presence of chemical substance/The level of expressed mRNA in the absence of chemical substance", "setting": "yeast gene YLR134W, cells incubated two hours with the chemical substance", "value": 0.9},
      {"measurement": "The level of expressed mRNA in the presence of chemical substance/The level of expressed mRNA in the absence of chemical substance", "setting": "yeast gene YLR258W, cells incubated two hours with the chemical substance", "value": 1.7},
      {"measurement": "The level of expressed mRNA in the presence of chemical substance/The level of expressed mRNA in the absence of chemical substance", "setting": "yeast gene YLR284C, cells incubated two hours with the chemical substance", "value": 0.9},
      {"measurement": "The level of expressed mRNA in the presence of chemical substance/The level of expressed mRNA in the absence of chemical substance", "setting": "yeast gene YLR295C, cells incubated two hours with the chemical substance, 25° C., YPD medium", "value": 1.5},
      {"measurement": "The level of expressed mRNA in the presence of chemical substance/The level of expressed mRNA in the absence of chemical substance", "setting": "yeast gene YLR304C, cells incubated two hours with the chemical substance", "value": 0.7},
      {"measurement": "The level of expressed mRNA in the presence of chemical substance/The level of expressed mRNA in the absence of chemical substance", "setting": "yeast gene YLR345W", "value": 1.4},
      {"measurement": "The level of expressed mRNA in the presence of chemical substance/The level of expressed mRNA in the absence of chemical substance", "setting": "yeast gene YLR354C, cells incubated two hours with the chemical substance", "value": 1.2},
      {"measurement": "The level of expressed mRNA in the presence of chemical substance/The level of expressed mRNA in the absence of chemical substance", "setting": "yeast gene YLR377C, cells incubated two hours with the chemical substance", "value": 1.1},
      {"measurement": "The level of expressed mRNA in the presence of chemical substance/The level of expressed mRNA in the absence of chemical substance", "setting": "yeast gene YLR395C, cells incubated two hours with the chemical substance", "value": 1.8},
      {"measurement": "The level of expressed mRNA in the presence of chemical substance/The level of expressed mRNA in the absence of chemical substance", "setting": "yeast gene YML087C", "value": 1.8},
      {"measurement": "The level of expressed mRNA in the presence of chemical substance/The level of expressed mRNA in the absence of chemical substance", "setting": "yeast gene YML120C, cells incubated two hours with the chemical substance", "value": 1.1},
      {"measurement": "The level of expressed mRNA in the presence of chemical substance/The level of expressed mRNA in the absence of chemical substance", "setting": "yeast gene YML129C, cells incubated two hours with the chemical substance", "value": 1.1},
      {"measurement": "The level of expressed mRNA in the presence of chemical substance/The level of expressed mRNA in the absence of chemical substance", "setting": "yeast gene YMR073C, cells incubated two hours with the chemical substance", "value": 1.1},
      {"measurement": "The level of expressed mRNA in the presence of chemical substance/The level of expressed mRNA in the absence of chemical substance", "setting": "yeast gene YMR118C", "value": 1.3},
      {"measurement": "The level of expressed mRNA in the presence of chemical substance/The level of expressed mRNA in the absence of chemical substance", "setting": "yeast gene YMR205C, cells incubated two hours with the chemical substance", "value": 0.5},
      {"measurement": "The level of expressed mRNA in the presence of chemical substance/The level of expressed mRNA in the absence of chemical substance", "setting": "yeast gene YMR261C, cells incubated two hours with the chemical substance", "value": 0.8},
      {"measurement": "The level of expressed mRNA in the presence of chemical substance/The level of expressed mRNA in the absence of chemical substance", "setting": "yeast gene YMR267W, cells incubated two hours with the chemical substance, 25° C., YPD medium", "value": 0.8},
      {"measurement": "The level of expressed mRNA in the presence of chemical substance/The level of expressed mRNA in the absence of chemical substance", "setting": "yeast gene YMR323W, cells incubated two hours with the chemical substance", "value": 0.8},
      {"measurement": "The level of expressed mRNA in the presence of chemical substance/The level of expressed mRNA in the absence of chemical substance", "setting": "yeast gene YNL071W", "value": 0.9},
      {"measurement": "The level of expressed mRNA in the presence of chemical substance/The level of expressed mRNA in the absence of chemical substance", "setting": "yeast gene YNL202W, cells incubated two hours with the chemical substance", "value": 0.7},
      {"measurement": "The level of expressed mRNA in the presence of chemical substance/The level of expressed mRNA in the absence of chemical substance", "setting": "yeast gene YNL241C", "value": 1.3},
      {"measurement": "The level of expressed mRNA in the presence of chemical substance/The level of expressed mRNA in the absence of chemical substance", "setting": "yeast gene YNL331C", "value": 8.6},
      {"measurement": "The level of expressed mRNA in the presence of chemical substance/The level of expressed mRNA in the absence of chemical substance", "setting": "yeast gene YOL086C, cells incubated two hours with the chemical substance", "value": 1.1},
      {"measurement": "The level of expressed mRNA in the presence of chemical substance/The level of expressed mRNA in the absence of chemical substance", "setting": "yeast gene YOL165C", "value": 10.1},
      {"measurement": "The level of expressed mRNA in the presence of chemical substance/The level of expressed mRNA in the absence of chemical substance", "setting": "yeast gene YOR142W, cells incubated two hours with the chemical substance", "value": 1.3},
      {"measurement": "The level of expressed mRNA in the presence of chemical substance/The level of expressed mRNA in the absence of chemical substance", "setting": "yeast gene YOR178C, cells incubated two hours with the chemical substance", "value": 1.4},
      {"measurement": "The level of expressed mRNA in the presence of chemical substance/The level of expressed mRNA in the absence of chemical substance", "setting": "yeast gene YOR388C, cells incubated two hours with the chemical substance", "value": 1.0},
      {"measurement": "The level of expressed mRNA in the presence of chemical substance/The level of expressed mRNA in the absence of chemical substance", "setting": "yeast gene YPL031C, cells incubated two hours with the chemical substance", "value": 0.9},
      {"measurement": "The level of expressed mRNA in the presence of chemical substance/The level of expressed mRNA in the absence of chemical substance", "setting": "yeast gene YPL061W, cells incubated two hours with the chemical substance", "value": 0.4},
      {"measurement": "The level of expressed mRNA in the presence of chemical substance/The level of expressed mRNA in the absence of chemical substance", "setting": "yeast gene YPL088W", "value": 3.3},
      {"measurement": "The level of expressed mRNA in the presence of chemical substance/The level of expressed mRNA in the absence of chemical substance", "setting": "yeast gene YPL171C", "value": 15.2},
      {"measurement": "The level of expressed mRNA in the presence of chemical substance/The level of expressed mRNA in the absence of chemical substance", "setting": "yeast gene YPL240C", "value": 0.7},
      {"measurement": "The level of expressed mRNA in the presence of chemical substance/The level of expressed mRNA in the absence of chemical substance", "setting": "yeast gene YPL262W, cells incubated two hours with the chemical substance", "value": 1.1},
      {"measurement": "The level of expressed mRNA in the presence of chemical substance/The level of expressed mRNA in the absence of chemical substance", "setting": "yeast gene YPL275W, cells incubated two hours with the chemical substance", "value": 0.6},
      {"measurement": "The level of expressed mRNA in the presence of chemical substance/The level of expressed mRNA in the absence of chemical substance", "setting": "yeast gene YPL276W, cells incubated two hours with the chemical substance", "value": 1.2},
      {"measurement": "The level of expressed mRNA in the presence of chemical substance/The level of expressed mRNA in the absence of chemical substance", "setting": "yeast gene YPR048W, cells incubated two hours with the chemical substance", "value": 1.3},
      {"measurement": "The level of expressed mRNA in the presence of chemical substance/The level of expressed mRNA in the absence of chemical substance", "setting": "yeast gene YPR184W, cells incubated two hours with the chemical substance", "value": 1.2}
    ]}
  ]
}
